The source of these data is ChEMBL document CHEMBL1201862, “PubChem BioAssay data set” (2004).

Structures are written as SMILES.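 Method: 48-hour compound exposure of cells in 96-well plates, five concentrations, linear interpolation of endpoints. At the GI50, growth is halved.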 Activity calls are given as the source filed them. Cut-off read from the data, not from the text of the source: active = GI50 up to about 1.1 µM and inactive = higher. A value given as a limit tells only on which side of the number the result lay.

Some test systems named below: CCRF-CEM; HT-29; SF-539; A498; PC-3; NCI/ADR-RES; 786-0; T47D; DU-145; SR; SK-MEL-2; RXF 393; MDA-MB-435; SNB-75; CAKI-1; MDA-N; SW-620; MDA-MB-231; Hs-578T; TK-10.
Assay in all cases: inhibition of tumour cell growth, NCI panel, 48 h

Consider `COc1cc(C2SC(=N)Nc3c2c(C)nn3C(=O)c2ccccc2O)cc(OC)c1OC` (centres undefined), for which the GI50 was 3.85 µM (inactive) with CCRF-CEM; > 10 µM (inactive) with HT-29; 4.42 µM (inactive) with SF-539; 5 µM (inactive) in the test on A498; 5.48 µM (inactive) with PC-3; 4.38 µM (inactive) in the test with NCI/ADR-RES. The GI50 with 786-0 is 9.14 µM (inactive); in the test with T47D it was 3.26 µM (inactive); with DU-145 it was 5.12 µM (inactive); with SR, 9.35 µM (inactive); in the test with SK-MEL-2, > 10 µM (inactive); in the test on RXF 393 it was 8.51 µM (inactive). Also, the GI50 was 6.78 µM (inactive) in the test with MDA-MB-435; 1.87 µM (inactive) in the test with SNB-75; 6.05 µM (inactive) with CAKI-1; 6.14 µM (inactive) in the test with MDA-N; > 10 µM (inactive) with SW-620; 7.89 µM (inactive) in the test with MDA-MB-231. In addition, the values for the GI50 with Hs-578T and with TK-10 were 3.57 µM (inactive) and > 10 µM (inactive), respectively.

Take `CN(NC(=O)/C(=C/c1ccc(O)cc1)NC(=O)c1ccccc1)c1ccnc2cc(Cl)ccc12`: the GI50 was 17.3 µM (inactive) in the test with CCRF-CEM; 6.4 µM (inactive) in the test on HT-29; 23 µM (inactive) in the test with SF-539; 18.2 µM (inactive) with A498; 16.6 µM (inactive) in the test with PC-3; 14.5 µM (inactive) in the test on NCI/ADR-RES. In addition, the GI50 is 15.9 µM (inactive) in the test with 786-0; 20.5 µM (inactive) with T47D; 21.9 µM (inactive) in the test on DU-145; 3.08 µM (inactive) with SR; 22.3 µM (inactive) with SK-MEL-2; 14.6 µM (inactive) with RXF 393. For the same compound, the GI50 in the test with MDA-MB-435 was 17.3 µM (inactive); in the test with SNB-75, 8.85 µM (inactive); in the test on CAKI-1 it was 19.3 µM (inactive); in the test with MDA-N it was 17.4 µM (inactive); in the test on SW-620 it was 20.8 µM (inactive); with MDA-MB-231 it was 20.7 µM (inactive). The GI50 in the test on Hs-578T is 19.2 µM (inactive); in the test with TK-10, 15.5 µM (inactive).

Regarding `CNC(=O)OCc1c2ccncc2c(C)c2c1[nH]c1ccccc12`, the GI50 was 0.0962 µM (active) in the test with CCRF-CEM; 0.215 µM (active) with HT-29; 0.207 µM (active) with SF-539; 0.202 µM (active) with A498; 0.723 µM (active) with PC-3; 0.24 µM (active) in the test with NCI/ADR-RES. The GI50 was 0.262 µM (active) in the test on 786-0; 0.331 µM (active) with T47D; 0.269 µM (active) with DU-145; < 0.01 µM (active) with SR; 0.261 µM (active) in the test on SK-MEL-2; < 0.0385 µM (active) with RXF 393. Also, the GI50 in the test on MDA-MB-435 was 0.421 µM (active); in the test with SNB-75, 0.21 µM (active); in the test with CAKI-1, 0.141 µM (active); with MDA-N it was 0.501 µM (active); with SW-620, 0.136 µM (active); in the test on MDA-MB-231, 0.48 µM (active). Also, the values for the GI50 in the test with Hs-578T and with TK-10 were 0.413 µM (active) and 0.237 µM (active), respectively.

For `c1cncc(CNc2ncn[nH]2)c1`, the GI50 in the test on HT-29, in the test on SF-539, with A498, with PC-3, in the test with NCI/ADR-RES and with 786-0 was > 100 µM (inactive) throughout. Also, the GI50 in the test on T47D, in the test on DU-145, with SR, in the test on SK-MEL-2, with RXF 393 and with MDA-MB-435 was > 100 µM (inactive) in each case. The GI50 in the test with SNB-75, in the test on CAKI-1, in the test with MDA-N, with SW-620, with MDA-MB-231 and in the test with Hs-578T was > 100 µM (inactive) throughout. The GI50 in the test with TK-10 was > 100 µM (inactive).

As to `CCOC(=O)c1cc(C2CCN(CC(C)CC)C2=S)c(-c2cc(C)no2)[nH]1` (centres undefined), the GI50 in the test on CCRF-CEM was > 100 µM (inactive); in the test on HT-29 it was 41.7 µM (inactive); with SF-539, > 100 µM (inactive); in the test on A498 it was > 100 µM (inactive); in the test on PC-3, 41.6 µM (inactive); in the test on NCI/ADR-RES, 41.3 µM (inactive). Further, the GI50 was > 100 µM (inactive) in the test on 786-0; 50.4 µM (inactive) with T47D; > 100 µM (inactive) in the test on DU-145; 56.5 µM (inactive) in the test on SR; > 100 µM (inactive) with SK-MEL-2; > 100 µM (inactive) with RXF 393. Moreover, the GI50 in the test on MDA-MB-435 is > 100 µM (inactive); in the test with SNB-75, 57.9 µM (inactive); in the test with CAKI-1 it was > 100 µM (inactive); with MDA-N it was > 100 µM (inactive); with SW-620, > 100 µM (inactive); in the test on MDA-MB-231, 29.6 µM (inactive). Besides, the GI50 with Hs-578T was 89.7 µM (inactive).

Take `NS(=O)(=O)c1cc2c(cc1Cl)NC(Cc1ccccc1)NS2(=O)=O` (centres undefined) [BENZYLHYDROCHLOROTHIAZIDE]: the GI50 with HT-29 was > 100 µM (inactive); in the test on SF-539, 45.1 µM (inactive); with A498 it was > 100 µM (inactive); in the test on PC-3, > 100 µM (inactive); in the test with NCI/ADR-RES it was > 100 µM (inactive); in the test with 786-0, > 100 µM (inactive). The GI50 in the test on T47D is > 100 µM (inactive); in the test with DU-145, > 100 µM (inactive); in the test with SR, 61 µM (inactive); with SK-MEL-2, > 100 µM (inactive); in the test with RXF 393, > 100 µM (inactive); with MDA-MB-435 it was 45.1 µM (inactive). For the same compound, the GI50 in the test with SNB-75 is > 100 µM (inactive); in the test on CAKI-1 it was > 100 µM (inactive); with MDA-N, 53.7 µM (inactive); in the test with SW-620, 41.7 µM (inactive); in the test on MDA-MB-231, > 100 µM (inactive); in the test with Hs-578T, > 100 µM (inactive). Moreover, in the test on TK-10, the GI50 is > 100 µM (inactive).

Take `COC(=O)c1c(C)ccc2c(O)c3c(cc12)C(=O)c1c2c(cc(O)c1C3=O)C1(C)OC(C)(O2)C(O)C(N(C)C)C1O` (centres undefined): the GI50 in the test with CCRF-CEM was 0.283 µM (active); in the test with HT-29, 0.577 µM (active); with SF-539, 2.21 µM (inactive); in the test on A498 it was 1.57 µM (inactive); with PC-3 it was 1.66 µM (inactive); in the test with NCI/ADR-RES it was 2.79 µM (inactive). Also, the GI50 with 786-0 is 0.767 µM (active); in the test on T47D it was 2.76 µM (inactive); in the test on DU-145, 1.43 µM (inactive); in the test on SR, 0.294 µM (active); in the test on SK-MEL-2 it was 2.24 µM (inactive); in the test with RXF 393, 1.22 µM (inactive). The GI50 in the test with MDA-MB-435 is 1.62 µM (inactive); in the test on SNB-75 it was 1.61 µM (inactive); with CAKI-1 it was 1.91 µM (inactive); in the test with MDA-N it was 1.45 µM (inactive); with SW-620 it was 0.869 µM (active); with MDA-MB-231, 1.38 µM (inactive). In addition, the values for the GI50 with Hs-578T and in the test with TK-10 were 1.86 µM (inactive) and 1.4 µM (inactive), respectively.

In the case of `Cn1c(-c2cccs2)cc(-c2ccsc2)c1-c1ccsc1`, the GI50 is > 100 µM (inactive) in the test with CCRF-CEM; 93.5 µM (inactive) in the test on HT-29; > 100 µM (inactive) in the test on SF-539; > 100 µM (inactive) in the test with A498; > 100 µM (inactive) in the test with PC-3; > 100 µM (inactive) with NCI/ADR-RES. In addition, the GI50 with 786-0 is > 100 µM (inactive); with T47D, 1.81 µM (inactive); with DU-145 it was > 100 µM (inactive); in the test with SR, > 100 µM (inactive); in the test on RXF 393, > 100 µM (inactive); in the test with MDA-MB-435 it was > 100 µM (inactive). Further, the GI50 in the test on SNB-75, with CAKI-1, in the test with MDA-N, with SW-620, in the test on MDA-MB-231 and in the test on Hs-578T was > 100 µM (inactive) in each case. In addition, in the test on TK-10, the GI50 was > 100 µM (inactive).

As for `Cc1nn(CNc2ccc(F)c(Cl)c2)c(=S)n1/N=C/c1ccc(-c2ccc(Cl)cc2Cl)o1`, the GI50 is 4.16 µM (inactive) with CCRF-CEM; 19.6 µM (inactive) in the test on HT-29; 16.8 µM (inactive) with SF-539; 15.1 µM (inactive) with A498; 16.4 µM (inactive) in the test on PC-3; 19.3 µM (inactive) with NCI/ADR-RES. Besides, the GI50 in the test on 786-0 was 15.3 µM (inactive); in the test on T47D it was 18.5 µM (inactive); in the test with DU-145, 16.9 µM (inactive); in the test on SR, 1.4 µM (inactive); with SK-MEL-2 it was 22.6 µM (inactive); with RXF 393, 17.9 µM (inactive). The GI50 is 17.6 µM (inactive) in the test on MDA-MB-435; 16.8 µM (inactive) with CAKI-1; 17.7 µM (inactive) with MDA-N; 15.6 µM (inactive) in the test with SW-620; 17.8 µM (inactive) with MDA-MB-231; 15.5 µM (inactive) in the test on Hs-578T. Besides, the GI50 in the test with TK-10 is 15.3 µM (inactive).

Take `CC1(C)CC[C@]2(C)CC=C3[C@]4(C)CC[C@H]5C(C)(C)C(=O)CC[C@]5(C)[C@H]4CC[C@@]3(C)[C@H]2C1`: the GI50 in the test on CCRF-CEM, in the test on HT-29, in the test on SF-539, in the test with A498, in the test with PC-3 and in the test on NCI/ADR-RES was > 100 µM (inactive) in each case. The GI50 in the test on 786-0, in the test on T47D, in the test with DU-145, in the test with SR, with SK-MEL-2 and in the test with RXF 393 was > 100 µM (inactive) throughout. The GI50 in the test with MDA-MB-435, with CAKI-1, in the test with MDA-N, in the test with SW-620, with MDA-MB-231 and in the test on Hs-578T was > 100 µM (inactive) in each case. Further, the GI50 in the test on TK-10 was > 100 µM (inactive).
